Experimental data taken from patent publication US8168651B2, “Protein kinase modulators” (Cylene Pharmaceuticals, Inc., priority 2008, dated 2012).

What was measured:
Assay in all cases: Standardized radiometric kinase assays, percentage of activity at 0.5 μM;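 also: Read-out is ³³P-labelled substrate protein phosphorylated by each kinase, captured on filters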
[1] = target: each individual kinase of the panel (Homo sapiens, UniProt P24941); conditions: for % Activity: CDK2/cyclinA(h)
[2] = target: each individual kinase of the panel (Homo sapiens, UniProt P16234, D842V); conditions: for % Activity: PDGFRα(D842V)(h)
[3] = target: each individual kinase of the panel (Homo sapiens, UniProt Q16832)
Sequence of each individual kinase of the panel (Homo sapiens, UniProt Q16832) (Q16832 22-855 limits assumed): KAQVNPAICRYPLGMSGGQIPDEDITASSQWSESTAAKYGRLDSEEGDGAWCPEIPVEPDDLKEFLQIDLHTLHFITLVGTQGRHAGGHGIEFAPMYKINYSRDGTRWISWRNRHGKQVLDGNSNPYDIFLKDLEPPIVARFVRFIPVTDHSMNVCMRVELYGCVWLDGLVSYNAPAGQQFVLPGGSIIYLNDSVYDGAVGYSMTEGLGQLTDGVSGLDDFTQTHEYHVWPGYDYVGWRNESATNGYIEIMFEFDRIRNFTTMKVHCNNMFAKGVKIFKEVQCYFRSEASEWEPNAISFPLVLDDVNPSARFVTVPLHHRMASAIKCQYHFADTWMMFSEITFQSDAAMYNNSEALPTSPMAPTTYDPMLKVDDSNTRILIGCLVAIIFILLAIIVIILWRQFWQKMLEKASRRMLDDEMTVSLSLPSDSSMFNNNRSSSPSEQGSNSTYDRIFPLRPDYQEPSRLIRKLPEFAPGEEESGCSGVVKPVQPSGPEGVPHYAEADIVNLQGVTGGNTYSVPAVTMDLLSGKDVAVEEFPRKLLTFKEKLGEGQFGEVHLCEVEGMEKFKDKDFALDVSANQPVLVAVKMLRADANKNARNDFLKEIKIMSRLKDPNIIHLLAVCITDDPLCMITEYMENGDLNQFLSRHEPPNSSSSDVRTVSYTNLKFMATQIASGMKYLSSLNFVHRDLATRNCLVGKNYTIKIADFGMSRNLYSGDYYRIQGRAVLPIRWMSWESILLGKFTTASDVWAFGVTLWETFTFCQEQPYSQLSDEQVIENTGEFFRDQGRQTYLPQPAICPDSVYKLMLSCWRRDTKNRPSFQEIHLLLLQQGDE

[4] = target: each individual kinase of the panel (Homo sapiens, UniProt Q15375); conditions: for % Activity: EphA7(h)
Sequence of each individual kinase of the panel (Homo sapiens, UniProt Q15375) (Q15375 28-998 limits assumed): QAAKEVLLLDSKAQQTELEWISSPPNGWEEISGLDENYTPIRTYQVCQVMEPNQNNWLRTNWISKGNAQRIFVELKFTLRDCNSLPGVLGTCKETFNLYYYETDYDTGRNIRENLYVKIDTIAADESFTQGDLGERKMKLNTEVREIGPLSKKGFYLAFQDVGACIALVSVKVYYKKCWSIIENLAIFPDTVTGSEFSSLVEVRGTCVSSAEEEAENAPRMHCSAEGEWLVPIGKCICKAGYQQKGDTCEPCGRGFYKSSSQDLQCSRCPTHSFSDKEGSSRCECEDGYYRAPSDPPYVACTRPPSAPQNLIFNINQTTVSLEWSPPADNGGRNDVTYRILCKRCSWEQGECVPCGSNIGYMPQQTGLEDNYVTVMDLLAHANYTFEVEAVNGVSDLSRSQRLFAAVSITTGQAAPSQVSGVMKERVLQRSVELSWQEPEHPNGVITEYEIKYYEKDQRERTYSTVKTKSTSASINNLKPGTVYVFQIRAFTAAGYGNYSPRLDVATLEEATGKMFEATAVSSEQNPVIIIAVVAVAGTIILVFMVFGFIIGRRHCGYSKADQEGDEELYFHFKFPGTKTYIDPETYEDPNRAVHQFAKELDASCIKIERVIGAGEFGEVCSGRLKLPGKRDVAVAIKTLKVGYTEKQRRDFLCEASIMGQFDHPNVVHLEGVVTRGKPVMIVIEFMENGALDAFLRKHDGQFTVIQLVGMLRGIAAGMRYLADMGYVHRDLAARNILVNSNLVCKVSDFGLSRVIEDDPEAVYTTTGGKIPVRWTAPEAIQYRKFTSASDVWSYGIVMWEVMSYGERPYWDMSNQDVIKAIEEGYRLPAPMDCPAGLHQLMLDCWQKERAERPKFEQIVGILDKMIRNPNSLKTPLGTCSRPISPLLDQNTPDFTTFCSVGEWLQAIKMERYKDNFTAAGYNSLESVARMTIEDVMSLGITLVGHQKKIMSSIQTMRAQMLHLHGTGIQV

[5] = target: each individual kinase of the panel (Homo sapiens, UniProt P12931); conditions: for % Activity: cSRC(h)
Sequence of each individual kinase of the panel (Homo sapiens, UniProt P12931) (P12931 2-536 limits assumed): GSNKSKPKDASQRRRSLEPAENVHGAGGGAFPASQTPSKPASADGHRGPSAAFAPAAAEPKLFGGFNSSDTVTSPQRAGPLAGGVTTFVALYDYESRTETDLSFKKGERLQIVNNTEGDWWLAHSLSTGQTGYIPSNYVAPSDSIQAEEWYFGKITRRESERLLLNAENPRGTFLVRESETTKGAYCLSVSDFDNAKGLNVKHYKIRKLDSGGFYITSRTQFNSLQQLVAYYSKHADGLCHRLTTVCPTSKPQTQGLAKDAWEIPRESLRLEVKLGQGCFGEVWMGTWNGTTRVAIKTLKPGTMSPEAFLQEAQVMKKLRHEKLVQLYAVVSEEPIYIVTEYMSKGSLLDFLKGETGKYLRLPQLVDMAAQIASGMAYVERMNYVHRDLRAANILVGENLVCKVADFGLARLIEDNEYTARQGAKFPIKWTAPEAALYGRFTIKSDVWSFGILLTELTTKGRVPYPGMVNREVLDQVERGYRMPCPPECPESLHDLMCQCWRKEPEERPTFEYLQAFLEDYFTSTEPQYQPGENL

[6] = target: each individual kinase of the panel (Homo sapiens, UniProt P36888, D835Y); conditions: for % Activity: Flt3(D835Y)(h)
[7] = target: each individual kinase of the panel (Homo sapiens, UniProt Q04912); conditions: for % Activity: Ron(h)
Sequence of each individual kinase of the panel (Homo sapiens, UniProt Q04912) (Q04912 25-304 limits assumed): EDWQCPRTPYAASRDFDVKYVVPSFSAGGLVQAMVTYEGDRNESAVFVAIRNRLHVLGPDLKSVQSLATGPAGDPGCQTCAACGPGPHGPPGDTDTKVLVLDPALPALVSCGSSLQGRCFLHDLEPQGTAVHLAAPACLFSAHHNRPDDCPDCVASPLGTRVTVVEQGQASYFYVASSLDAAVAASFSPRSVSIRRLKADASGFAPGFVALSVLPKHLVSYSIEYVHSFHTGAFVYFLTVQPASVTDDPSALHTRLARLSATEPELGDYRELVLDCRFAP
Sequence of each individual kinase of the panel (Homo sapiens, UniProt Q04912) (Q04912 310-1400 limits assumed): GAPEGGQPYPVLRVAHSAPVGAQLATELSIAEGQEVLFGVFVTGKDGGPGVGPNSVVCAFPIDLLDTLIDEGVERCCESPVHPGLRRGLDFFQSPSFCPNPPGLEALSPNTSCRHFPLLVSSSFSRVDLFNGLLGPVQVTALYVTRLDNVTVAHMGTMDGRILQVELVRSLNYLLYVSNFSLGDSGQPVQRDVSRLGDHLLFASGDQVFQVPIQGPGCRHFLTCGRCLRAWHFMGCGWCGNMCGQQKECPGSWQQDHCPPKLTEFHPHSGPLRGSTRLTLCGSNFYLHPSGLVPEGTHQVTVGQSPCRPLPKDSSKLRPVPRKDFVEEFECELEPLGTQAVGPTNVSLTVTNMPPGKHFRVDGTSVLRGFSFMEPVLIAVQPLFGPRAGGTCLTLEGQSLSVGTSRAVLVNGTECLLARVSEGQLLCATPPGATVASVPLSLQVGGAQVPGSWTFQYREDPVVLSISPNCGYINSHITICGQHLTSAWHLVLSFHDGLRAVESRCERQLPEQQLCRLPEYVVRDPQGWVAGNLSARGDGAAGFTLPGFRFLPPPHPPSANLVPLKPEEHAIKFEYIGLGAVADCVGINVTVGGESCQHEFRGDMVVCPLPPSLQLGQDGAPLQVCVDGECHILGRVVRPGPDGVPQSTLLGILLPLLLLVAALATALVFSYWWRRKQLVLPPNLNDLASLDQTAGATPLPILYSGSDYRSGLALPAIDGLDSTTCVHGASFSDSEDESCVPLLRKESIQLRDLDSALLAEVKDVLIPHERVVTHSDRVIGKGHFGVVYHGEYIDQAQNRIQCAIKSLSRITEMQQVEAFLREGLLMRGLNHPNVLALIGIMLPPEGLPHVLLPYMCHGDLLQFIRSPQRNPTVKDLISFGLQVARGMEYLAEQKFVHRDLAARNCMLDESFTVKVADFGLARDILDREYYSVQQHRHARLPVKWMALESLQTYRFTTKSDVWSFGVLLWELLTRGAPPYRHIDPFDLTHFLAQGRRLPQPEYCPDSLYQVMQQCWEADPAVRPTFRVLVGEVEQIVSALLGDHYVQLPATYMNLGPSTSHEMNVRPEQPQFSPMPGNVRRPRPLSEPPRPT

[8] = target: each individual kinase of the panel (Homo sapiens, UniProt P11362); conditions: for % Activity: FGFR1(h)
[9] = target: each individual kinase of the panel (Homo sapiens, UniProt P80192); conditions: for % Activity: MLK1(h)
[10] = target: each individual kinase of the panel (Homo sapiens, UniProt Q9H4B4)
[11] = target: each individual kinase of the panel (Homo sapiens, UniProt Q04759); conditions: for % Activity: PKCθ(h)
[12] = target: each individual kinase of the panel (Homo sapiens, UniProt P49841); conditions: for % Activity: GSK3β(h)
[13] = target: each individual kinase of the panel (Homo sapiens, UniProt Q00534)
[14] = target: each individual kinase of the panel (Homo sapiens, UniProt P07332); conditions: for % Activity: Fes(h)
[15] = target: each individual kinase of the panel (Homo sapiens, UniProt P21802); conditions: for % Activity: FGFR2(h)
[16] = target: each individual kinase of the panel (Homo sapiens, UniProt O75676); conditions: for % Activity: MSK2(h)
[17] = target: each individual kinase of the panel (Homo sapiens, UniProt Q14680); conditions: for % Activity: MELK(h)
[18] = target: each individual kinase of the panel (Homo sapiens, UniProt P16234); conditions: for % Activity: PDGFRα(h)
[19] = target: each individual kinase of the panel (Homo sapiens, UniProt P41240)
[20] = target: each individual kinase of the panel (Homo sapiens, UniProt Q9Y6M4); conditions: for % Activity: CK1γ3(h)
[21] = target: each individual kinase of the panel (Homo sapiens, UniProt P06493); conditions: for % Activity: CDK1/cyclinB(h)
[22] = target: each individual kinase of the panel (Homo sapiens, UniProt Q14012); conditions: for % Activity: CaMKI(h)
[23] = target: each individual kinase of the panel (Homo sapiens, UniProt Q9UK32); conditions: for % Activity: Rsk4(h)
[24] = target: each individual kinase of the panel (Homo sapiens, UniProt P35916); conditions: for % Activity: Flt4(h)
[25] = target: each individual kinase of the panel (Homo sapiens, UniProt P17252); conditions: for % Activity: PKCα(h)
[26] = target: each individual kinase of the panel (Homo sapiens, UniProt P07948); conditions: for % Activity: Lyn(h)
Sequence of each individual kinase of the panel (Homo sapiens, UniProt P07948) (P07948 2-512 limits assumed): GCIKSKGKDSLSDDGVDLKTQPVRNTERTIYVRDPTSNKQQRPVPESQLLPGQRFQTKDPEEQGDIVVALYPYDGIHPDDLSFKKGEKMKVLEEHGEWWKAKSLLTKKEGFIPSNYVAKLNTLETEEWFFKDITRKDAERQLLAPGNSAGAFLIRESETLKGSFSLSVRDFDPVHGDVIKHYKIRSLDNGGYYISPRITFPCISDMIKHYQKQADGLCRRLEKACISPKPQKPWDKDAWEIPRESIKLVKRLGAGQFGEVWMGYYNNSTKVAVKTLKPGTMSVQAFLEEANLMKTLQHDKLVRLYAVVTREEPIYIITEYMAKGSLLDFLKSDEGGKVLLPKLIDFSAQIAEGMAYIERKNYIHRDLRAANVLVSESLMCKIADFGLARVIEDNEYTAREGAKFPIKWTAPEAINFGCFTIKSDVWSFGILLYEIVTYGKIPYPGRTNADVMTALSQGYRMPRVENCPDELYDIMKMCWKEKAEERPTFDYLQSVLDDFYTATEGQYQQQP

[27] = target: each individual kinase of the panel (Homo sapiens, UniProt P19784); conditions: CK2α2(h)
[28] = target: each individual kinase of the panel (Homo sapiens, UniProt P00533, L861Q); conditions: for % Activity: EGFR(L861Q)(h)
[29] = target: each individual kinase of the panel (Homo sapiens, UniProt P06239); conditions: for % Activity: Lck(h)

## C#Cc1cccc(Nc2nc3cc(C(=O)O)ccc3c3cncnc23)c1 [drawing 1135]
[1]
  CDK2/cyclinE percentage of activity: −13%
[2]
  PDGFRA (D842V) percentage of activity: −9%
[3]
  DDR2 percentage of activity: −9%
[4]
  EPHA7 percentage of activity: 1%
[5]
  SRC percentage of activity: −2%
  Src(1-530) percentage of activity: −1%
[6]
  FLT3(D835Y) percentage of activity: 83%
[7]
  RON percentage of activity: −6%
[8]
  FGFR1 percentage of activity: −3%
[9]
  MLK1 percentage of activity: 20%
[10]
  PLK3 percentage of activity: −6%
[11]
  PRKCT percentage of activity: −11%
[12]
  GSK3B percentage of activity: 44%
[13]
  CDK6/cyclinD3 percentage of activity: −8%
[14]
  FES percentage of activity: −39%
[15]
  FGFR2 percentage of activity: −7%
[16]
  MSK2 percentage of activity: 44%
[17]
  MELK percentage of activity: 51%
[18]
  PDGFRA percentage of activity: −9%
[19]
  CSK percentage of activity: −46%
[20]
  CK1 gamma 3 percentage of activity: 0%
[21]
  CDK1/cyclinB percentage of activity: 48%
[22]
  CAMK1 percentage of activity: −4%
[23]
  RPS6KA6 percentage of activity: 22%
[24]
  FLT4 percentage of activity: 101%
[25]
  PRKCA percentage of activity: 1%

## NC(=O)c1cccc2c1nc(Nc1cccc(Cl)c1)c1ccncc12 [B]
[26]
  % Activity: 75%
[1]
  % Activity: 17%
[2]
  % Activity: 15%
[4]
  % Activity: 90%
[5]
  % Activity: 74%
[6]
  % Activity: 2%
[7]
  % Activity: 95%
[8]
  % Activity: 93%
[9]
  % Activity: 77%
[10]; Plk3(h)
  % Activity: 102%
[27]
  % Activity: 51%
[11]
  % Activity: 83%
[12]
  % Activity: 25%
[28]
  % Activity: 54%
[13]; CDK6/cyclinD3(h)
  % Activity: 63%
[14]
  % Activity: 94%
[29]
  % Activity: 24%
[15]
  % Activity: 94%
[16]
  % Activity: 65%
[17]
  % Activity: 14%
[18]
  % Activity: 105%
[20]
  % Activity: 38%
[21]
  % Activity: 18%
[22]
  % Activity: 62%
[23]
  % Activity: 41%
[24]
  % Activity: 41%
[25]
  % Activity: 97%

## C#Cc1cccc(Nc2nc3cc(C(=O)O)ccc3c3cnccc23)c1 [drawing 1137]
[26]
  LYN percentage of activity: 20%
[1]
  CDK2/cyclin A percentage of activity: 53%
[2]
  PDGFRA (D842V) percentage of activity: 78%
[3]
  DDR2 percentage of activity: 12%
[4]
  EPHA7 percentage of activity: 5%
[5]
  SRC percentage of activity: 22%
  Src(1-530) percentage of activity: 11%
[6]
  FLT3(D835Y) percentage of activity: 97%
[7]
  RON percentage of activity: 9%
[8]
  FGFR1 percentage of activity: 23%
[9]
  MLK1 percentage of activity: 21%
[10]
  PLK3 percentage of activity: −1%
[11]
  PRKCT percentage of activity: 10%
[12]
  GSK3B percentage of activity: 28%
[28]
  EGFR(L861Q) percentage of activity: 59%
[13]
  CDK6/cyclinD3 percentage of activity: 12%
[14]
  FES percentage of activity: 1%
[29]
  LCK percentage of activity: 33%
[15]
  FGFR2 percentage of activity: 11%
[16]
  MSK2 percentage of activity: 41%
[17]
  MELK percentage of activity: 77%
[18]
  PDGFRA percentage of activity: −2%
[19]
  CSK percentage of activity: −9%
[20]
  CK1 gamma 3 percentage of activity: 32%
[21]
  CDK1/cyclinB percentage of activity: 84%
[22]
  CAMK1 percentage of activity: 1%
[23]
  RPS6KA6 percentage of activity: 65%
[24]
  FLT4 percentage of activity: 101%
[25]
  PRKCA percentage of activity: 9%

## Clc1ccccc1Nc1nc2c(-c3nnc[nH]3)cccc2c2cnccc12 [A]
[26]
  % Activity: 75%
[1]
  % Activity: 31%
[2]
  % Activity: 17%
[3]; DDR2(h)
  % Activity: 90%
[4]
  % Activity: 96%
[5]
  % Activity: 64%
[6]
  % Activity: 24%
[7]
  % Activity: 99%
[8]
  % Activity: 100%
[9]
  % Activity: 24%
[27]
  % Activity: 73%
[11]
  % Activity: 39%
[12]
  % Activity: 23%
[28]
  % Activity: 60%
[14]
  % Activity: 84%
[29]
  % Activity: 21%
[15]
  % Activity: 93%
[16]
  % Activity: 51%
[17]
  % Activity: 13%
[18]
  % Activity: 97%
[20]
  % Activity: 21%
[21]
  % Activity: 37%
[22]
  % Activity: 90%
[23]
  % Activity: 12%
[24]
  % Activity: 17%
[25]
  % Activity: 99%
